US6914045B2, “Glycopeptide antibiotics” (Wyeth Holdings Corporation, priority 2001, dated 2005)
Values after ≈ are worked out from the molar mass of the structure shown.

Legend:
Experiment in all cases: in vitro antibacterial evaluation, MIC by broth dilution
Type in all cases: cell-based
Enterococcus sp. = settings: broth dilution, 18 hours at 35° C.
Procedure, shortened: (§1)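 Inoculum 5×10^5 CFU/mL; concentrations 64 to 0.06 μg/mL; MIC defined as lowest inhibitory level. Conducted by broth dilution under NCCLS guidelines.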

Escherichia coli = test system: Escherichia coli
Procedure, shortened: as §1

Staphylococcus sp. = settings: broth dilution, 18 hours at 35° C.; for MIC Staphylococcus aureus (GC 1131): strain GC 1131
Procedure, shortened: as §1

Streptococcus sp. = settings: broth dilution, 18 hours at 35° C.
Procedure, shortened: as §1

MIC Enterococcus avium (GC 4558) (Enterococcus sp.; Enterococcus avium (GC 4558)): 4 µg/mL (≈ 2.82 µM)
MIC Enterococcus faecalis (ATCC 29212) (Enterococcus sp.; Enterococcus faecalis (ATCC 29212)): 4 µg/mL (≈ 2.82 µM)
MIC Enterococcus faecalis (GC 2242) (Enterococcus sp.; Enterococcus faecalis (GC 2242)): 4 µg/mL (≈ 2.82 µM)
MIC Enterococcus faecalis (GC 2691) (Enterococcus sp.; Enterococcus faecalis (GC 2691)): 8 µg/mL (≈ 5.64 µM)
MIC Enterococcus faecalis (GC 3059) (Enterococcus sp.; Enterococcus faecalis (GC 3059)): 4 µg/mL (≈ 2.82 µM)
MIC Enterococcus faecalis (GC 4552) (Enterococcus sp.; Enterococcus faecalis (GC 4552)): 4 µg/mL (≈ 2.82 µM)
MIC Enterococcus faecalis (GC 4553) (Enterococcus sp.; Enterococcus faecalis (GC 4553)): 8 µg/mL (≈ 5.64 µM)
MIC Enterococcus faecalis (GC 4554) (Enterococcus sp.; Enterococcus faecalis (GC 4554)): 8 µg/mL (≈ 5.64 µM)
MIC Enterococcus faecalis (GC 6189) (Enterococcus sp.; Enterococcus faecalis (GC 6189)): 4 µg/mL (≈ 2.82 µM)
MIC Enterococcus faecium (GC 2243) (Enterococcus sp.; Enterococcus faecium (GC 2243)): 4 µg/mL (≈ 2.82 µM)
MIC Enterococcus faecium (GC 4556) (Enterococcus sp.; Enterococcus faecium (GC 4556)): 8 µg/mL (≈ 5.64 µM)
MIC Enterococcus faecium (GC 4557) (Enterococcus sp.; Enterococcus faecium (GC 4557)): 2 µg/mL (≈ 1.41 µM)
MIC Enterococcus faecalis (ATCC 29212) (Enterococcus sp.; strain ATCC 29212): 4 µg/mL (≈ 2.82 µM)
MIC Enterococcus faecalis (GC 2242) (Enterococcus sp.; strain GC 2242): 4 µg/mL (≈ 2.82 µM)
MIC Enterococcus faecium (GC 2243) (Enterococcus sp.; strain GC 2243): 4 µg/mL (≈ 2.82 µM)
MIC Enterococcus faecalis (GC 2691) (Enterococcus sp.; strain GC 2691): 8 µg/mL (≈ 5.64 µM)
MIC Enterococcus faecalis (GC 3059) (Enterococcus sp.; strain GC 3059): 4 µg/mL (≈ 2.82 µM)
MIC Enterococcus faecalis (GC 4552) (Enterococcus sp.; strain GC 4552): 4 µg/mL (≈ 2.82 µM)
MIC Enterococcus faecalis (GC 4553) (Enterococcus sp.; strain GC 4553): 8 µg/mL (≈ 5.64 µM)
MIC Enterococcus faecalis (GC 4554) (Enterococcus sp.; strain GC 4554): 8 µg/mL (≈ 5.64 µM)
MIC Enterococcus faecium (GC 4556) (Enterococcus sp.; strain GC 4556): 8 µg/mL (≈ 5.64 µM)
MIC Enterococcus faecium (GC 4557) (Enterococcus sp.; strain GC 4557): 2 µg/mL (≈ 1.41 µM)
MIC Enterococcus avium (GC 4558) (Enterococcus sp.; strain GC 4558): 4 µg/mL (≈ 2.82 µM)
MIC Enterococcus faecalis (GC 6189) (Enterococcus sp.; strain GC 6189): 4 µg/mL (≈ 2.82 µM)
MIC Escherichia coli (ATCC 25922) (Escherichia coli; strain ATCC 25922, 18 hours at 35° C.): 64 µg/mL (≈ 45.1 µM)
MIC Escherichia coli (GC 4559) (Escherichia coli; strain GC 4559, 18 hours at 35° C.): 64 µg/mL (≈ 45.1 µM)
MIC Escherichia coli (GC 4560) (Escherichia coli; strain GC 4560, 18 hours at 35° C.): 0.5 µg/mL (≈ 0.353 µM)
MIC Staphylococcus aureus (GC 1131) (Staphylococcus sp.; inoculum 5×10^5 CFU/mL): 2 µg/mL (≈ 1.41 µM)
MIC Staphylococcus aureus (ATCC 29213) (Staphylococcus sp.; strain ATCC 29213): 2 µg/mL (≈ 1.41 µM)
MIC Staphylococcus aureus (GC 1131) (Staphylococcus sp.): 2 µg/mL (≈ 1.41 µM)
MIC Staphylococcus aureus (GC 3051) (Staphylococcus sp.; strain GC 3051): 2 µg/mL (≈ 1.41 µM)
MIC Staphylococcus aureus (GC 3053) (Staphylococcus sp.; strain GC 3053): 2 µg/mL (≈ 1.41 µM)
MIC Staphylococcus aureus (GC 4541) (Staphylococcus sp.; strain GC 4541): 2 µg/mL (≈ 1.41 µM)
MIC Staphylococcus aureus (GC 4542) (Staphylococcus sp.; strain GC 4542): 2 µg/mL (≈ 1.41 µM)
MIC Staphylococcus aureus-SMITH (GC 4543) (Staphylococcus sp.; strain GC 4543): 1 µg/mL (≈ 0.705 µM)
MIC Staphylococcus aureus (GC 4544) (Staphylococcus sp.; strain GC 4544): 2 µg/mL (≈ 1.41 µM)
MIC Staphylococcus aureus (GC 4545) (Staphylococcus sp.; strain GC 4545): 2 µg/mL (≈ 1.41 µM)
MIC Coagulase Negative Staphylococcus (GC 4547) (Staphylococcus sp.; strain GC 4547): 4 µg/mL (≈ 2.82 µM)
MIC Coagulase Negative Staphylococcus (GC 4548) (Staphylococcus sp.; strain GC 4548): 1 µg/mL (≈ 0.705 µM)
MIC Coagulase Negative Staphylococcus (GC 4549) (Staphylococcus sp.; strain GC 4549): 1 µg/mL (≈ 0.705 µM)
MIC Coagulase Negative Staphylococcus (GC 4551) (Staphylococcus sp.; strain GC 4551): 2 µg/mL (≈ 1.41 µM)
MIC Coagulase Negative Staphylococcus (GC 6257) (Staphylococcus sp.; strain GC 6257): 2 µg/mL (≈ 1.41 µM)
MIC Staphylococcus aureus-SMITH (GC 4543) (Staphylococcus sp.; strain SMITH GC 4543): 1 µg/mL (≈ 0.705 µM)
MIC Streptococcus agalactiae (GC 4564) (Streptococcus sp.; Streptococcus agalactiae (GC 4564)): 0.12 µg/mL (≈ 0.0846 µM)
MIC Streptococcus pneumoniae (ATCC 6301) (Streptococcus sp.; Streptococcus pneumoniae (ATCC 6301)): <0.06 µg/mL
MIC Streptococcus pneumoniae (GC 1894) (Streptococcus sp.; Streptococcus pneumoniae (GC 1894)): <0.06 µg/mL
MIC Streptococcus pneumoniae (GC 4565) (Streptococcus sp.; Streptococcus pneumoniae (GC 4565)): <0.06 µg/mL
MIC Streptococcus pyogenes (GC 4563) (Streptococcus sp.; Streptococcus pyogenes (GC 4563)): 0.25 µg/mL (≈ 0.176 µM)
MIC Streptococcus pneumoniae (ATCC 6301) (Streptococcus sp.; strain ATCC 6301): <0.06 µg/mL
MIC Streptococcus pneumoniae (GC 1894) (Streptococcus sp.; strain GC 1894): <0.06 µg/mL
MIC Streptococcus pyogenes (GC 4563) (Streptococcus sp.; strain GC 4563): 0.25 µg/mL (≈ 0.176 µM)
MIC Streptococcus agalactiae (GC 4564) (Streptococcus sp.; strain GC 4564): 0.12 µg/mL (≈ 0.0846 µM)
MIC Streptococcus pneumoniae (GC 4565) (Streptococcus sp.; strain GC 4565): <0.06 µg/mL
SMILES: CC(c1ccccc1)C1NC(=O)CNC(=O)C(CO)NC(=O)C(C(O)C2CNC(=N)N2C2OC(CO)C(O)C(O)C2O)NC(=O)C(C(O)C2CNC(=N)N2)NC(=O)C(Cc2ccc(OC3OC(CO)C(OC4OC5COC(c6cccc(Cl)c6)OC5C(O)C4O)C(O)C3O)cc2)NC1=O (stereo not drawn) [Example 138, Cyclo[glycyl-β-methylphenylalanyl-O-[4-O-[4,6-O-(3-chlorobenzylidene)hexopyranosyl]-hexopyranosyl]tyrosyl-3-(2-iminoimidazolidin-4-yl)seryl-3-(3-hexopyranosyl-2-iminoimidazolidin-4-yl)serylseryl]]
MIC Staphylococcus haemolyticus (GC 4546) (Staphylococcus sp.; strain GC 4546): 2 µg/mL (≈ 1.41 µM)
